Consider one compound from publication PMC2688476, “Low affinity glucocorticoid binding site ligands as potential anti-fibrogenics” (Comparative Hepatology, 2009).

SMILES strings stand for the structures.

For data set [1], the system named is rat CCl4 model of liver fibrosis. In words: Rat CCl4 model of liver fibrosis. The class given is in vivo. To be noted: 20 mg/kg i.p. weekly, 8 weeks CCl4. The method, then:
To examine the effects of 4A3COOHmethyl on fibrosis, adult male rats were treated with 20 mg/kg body weight by i.p. injection every week during an 8 week twice weekly treatment with CCl4, to generate liver fibrosis. A reduced dose of 20 mg/kg body weight was chosen because the compound was to be administered to rats with compromised liver function. To avoid potential interactions with CCl4, toxicity (i.e., reductions in CCl4 hepatotoxicity that could be misinterpreted as anti-fibrogenic effects), 4A3COOHmethyl was not administered within a 48 hour period of CCl4 administration. Previous work has established that a similar dose of PCN – using the same dosing regimen – is sufficient to modulate fibrosis in animal models of fibrosis.
Figure 7 4A3COOHmethyl administration and liver fibrosis in a rat CCl4 model of liver fibrosis. […] Mean and standard deviation serum ALT (a); Mean and standard deviation collagen 1A1 mRNA levels (b); typical views of liver sections stained for sirius red, with a 100 μm scale bar (b); quantitative image analysis for fibrosis – data are the mean and standard deviation percentage sirius red staining from at least 4 separate animals in each treatment with at least 10 randomly selected fields examined for each animal (c). […]

The target of data set [2] is low affinity glucocorticoid binding site (LAGS) in rat liver microsomes (Rattus norvegicus, UniProt P70580). In words: Competition with radiolabelled dexamethasone for specific binding to rat liver microsomes (LAGS activity). To be noted: read-out: IC50% (competition of substituted progestins for binding to rat liver microsomes); Additional file 1; vs radiolabelled dexamethasone. As to the method:
A small volume of each incubation was removed to determine the total ligand concentration ([L0]) prior to removal of free unbound ligand by dextran/charcoal adsorption. […] Free ligand concentration at equilibrium was calculated by subtracting specifically bound ligand at equilibrium from the total ligand concentration (i.e. [L0] - [LRe]) and assumes receptor-ligand stoichiometry of 1:1.
In brief, rats were anaesthetized with pentobarbital and a 16G cannula inserted into the hepatic portal vein and secured. […] The liver was then excised and chopped roughly with ice-cooled TS buffer (10 mM Tris/HCl pH 7.4 containing 250 mM sucrose) and disrupted using a Potter-Elvehjem homogenisor. The resultant homogenate was then centrifuged at 12,000 g for 20 minutes at 4°C and the supernatant retained and centrifuged at 100,000 g for 60 minutes at 4°C. The resultant "microsomal" pellet was re-suspended in fresh TS buffer and re-centrifuged at 100,000 g to obtain a washed microsomal pellet. […] After overnight incubation on ice, free ligand was removed by charcoal dextran adsorption and bound radioligand determined in supernatants by liquid scintillation, essentially as previously described.
On the technique in general: Liver microsomes are a subcellular fraction often used to study metabolism.

The subject of the next data set is CYP3A1/3A23. Briefly: Screening for PXR activators in rat hepatocytes via CYP3A induction (Western blot). The class given is cell-based. To be noted: rat.
A further data set deals with human myofibroblasts. In words: Fibrogenic marker mRNA transcripts (TGFβ, TIMP1, collagen 1A1) in human myofibroblasts, qRT-PCR. Format: cell-based. Particulars: treatment for 19 days. The source says: Quantitative transcript expression was examined after reverse transcription (using a Taqman reverse transcription kit (Applied Biosystems)) using a PE Applied Biosystems ABI7700 and PE Applied Biosystems Gene Expression Assay™, incorporating sequence-specific forward, reverse and fluorescently labelled probes (see Table 2).
A general note: Real-time PCR tracks product formation cycle by cycle.

A further data set deals with rat HSCs. In words: Rat HSC-to-myofibroblast trans-differentiation (α-smooth muscle actin Western blot). The class given is cell-based. To be noted: α-sma Western blot after 9 days of treatment. The method, then: (§1) Figure 5 Screening for inhibitors of trans-differentiation in rat and human HSCs – Part 1. Rat HSCs were isolated and cultured for 2 days (T0) whereupon cells were treated with the indicated compound as outlined in methods section. After 9 days, cells were analyzed by Western blotting for α-smooth muscle actin (α-sma). Each lane contains 10 μg total protein/lane, results typical of at least 3 separate experiments (a). Human HSCs were treated with the indicated compound and confluence determined in randomly selected fields. Data are the mean and standard deviation confluence at day 12 of 3 separate treatment dishes from the same donor, typical of at least 3 separate donors (b).
(§2) HSCs were isolated from rats (250–300 g body weight, Harlan, UK) by sequential pronase/collagenase perfusion of the liver followed by density gradient centrifugation and elutriation as previously outlined. Human HSCs were isolated by an essentially similar procedure using discarded tissue from patients undergoing a hepatectomy with patient consent and ethical approval by the Grampian Regional Ethical Committee. HSCs were seeded onto plastic culture dishes and cultured in Dulbecco's modified Eagle Medium (DMEM) containing 4.5 g/l of glucose and supplemented with 5% or 16% (v/v) fetal calf serum (for rat or human respectively), […] penicillin, 80 μg/ml streptomycin and 32 μg/ml gentamycin. Additional treatments were made by addition of compounds in an ethanol vehicle (stock solutions at 1000× final concentration). Ethanol at 0.1% (v/v) acted as control. Frequency of treatment (3 treatments per week/2 medium changes per week), as previously described.

The subject of the next data set is CYP3A4. In words: Screening for PXR activators in human hepatocytes via CYP3A induction (Western blot). The class given is cell-based. Particulars: human. Background: Immunoblotting shows a protein as a band on a membrane.
The next data set deals with human HSCs. Briefly: Human HSC trans-differentiation/proliferation (confluence, α-sma). Format: cell-based. To be noted: confluence at day 12. The method, then: as §1
Figure 6 Screening for inhibitors of trans-differentiation in rat and human HSCs – Part 2. Photomicrographs of human HSCs at day 12 of culture with the indicated treatment (a); levels of expression of α-smooth muscle actin (α-sma) (b) and levels of expression of fibrogenic marker mRNA transcripts in human HSCs after treatment selected compounds for 19 days. Data are the mean and standard deviation relative transcript level from 3 separate treatments on cells from the same donor, typical of at least 3 separate donors (c).
as §2

Data set [3] in a line: Pilot toxicity study in adult male rats. The class given is in vivo, rat. Particulars: 3 days at up to 100 mg/kg body weight i.p.; 24 hours after final treatment. The method, then:
Since there was no information in the literature regarding any potential adverse effects of 4A3COOHmethyl administration, a pilot toxicity study was initially undertaken, in which adult male rats were administered 4A3COOHmethyl for 3 days at up to 100 mg/kg body weight by i.p. injection.

low affinity glucocorticoid binding site (LAGS) in rat liver microsomes, sequence (P70580 2-195): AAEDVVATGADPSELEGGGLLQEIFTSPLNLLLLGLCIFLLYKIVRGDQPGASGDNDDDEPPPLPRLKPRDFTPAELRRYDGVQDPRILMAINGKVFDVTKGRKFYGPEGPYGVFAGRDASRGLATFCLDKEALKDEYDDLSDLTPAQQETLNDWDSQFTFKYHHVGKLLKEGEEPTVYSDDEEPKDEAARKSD

The term IC50 denotes the concentration that gives 50% inhibition. `COC(=O)[C@H]1CC[C@H]2[C@@H]3CCC4=CC(=O)CC[C@]4(C)[C@H]3CC[C@]12C` [4A3COOHmethyl, 4 androstene-3-one 17β-carboxylic acid methyl ester]: in data set [1], the “fibrosis severity (α-sma staining, collagen 1a1 mRNA, sirius red staining)” value is “did not significantly affect” and the “serum levels of ALT” value is “did not affect”. For the same compound, in data set [2], the IC50 is 100 nM. Besides, the “activity as a PXR activator, rat” value with CYP3A1/3A23 is “no activity”. The “expression of TGFβ, TIMP1 and collagen 1A1 mRNAs in human myofibroblasts” value in the data set on human myofibroblasts is “inhibited the expression of all mRNAs”. In addition, the “inhibition of rat HSC trans-differentiation” value in the data set on rat HSCs is listed as “effective”. Moreover, the “activity as a PXR activator, human” value in the data set on CYP3A4 was “no activity”. For the same compound, the “inhibitory activity on human HSC trans-differentiation” value in the data set with human HSCs is recorded as “significant inhibitory activity”. The “adverse effects (liver serum enzyme levels and liver pathology)” value in data set [3] was “no adverse effects were observed”.
